Assay results taken from patent US10065990B2, “Cyclic peptide compound, and preparation method, pharmaceutical composition and use thereof” (HANGZHOU GUANYU BIO-MEDICAL CO., LTD, priority 2013, dated 2018).

Key:
HDAC7 = molecular target: T1, HDAC7 (Homo sapiens, UniProt Q8WUI4); assay: HDAC biochemical activity measurement (fluorescent substrate deacetylation);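 also: fluorogenic deacetylation assay using acetyl-lysine substrate at 20 µM, enzyme and compound incubated 30 min at 37 °C, then developer added, fluorescence read at 360/460 nm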; details: HDAC7; 37° C. 30 minutes
T1 sequence (Q8WUI4 1-952): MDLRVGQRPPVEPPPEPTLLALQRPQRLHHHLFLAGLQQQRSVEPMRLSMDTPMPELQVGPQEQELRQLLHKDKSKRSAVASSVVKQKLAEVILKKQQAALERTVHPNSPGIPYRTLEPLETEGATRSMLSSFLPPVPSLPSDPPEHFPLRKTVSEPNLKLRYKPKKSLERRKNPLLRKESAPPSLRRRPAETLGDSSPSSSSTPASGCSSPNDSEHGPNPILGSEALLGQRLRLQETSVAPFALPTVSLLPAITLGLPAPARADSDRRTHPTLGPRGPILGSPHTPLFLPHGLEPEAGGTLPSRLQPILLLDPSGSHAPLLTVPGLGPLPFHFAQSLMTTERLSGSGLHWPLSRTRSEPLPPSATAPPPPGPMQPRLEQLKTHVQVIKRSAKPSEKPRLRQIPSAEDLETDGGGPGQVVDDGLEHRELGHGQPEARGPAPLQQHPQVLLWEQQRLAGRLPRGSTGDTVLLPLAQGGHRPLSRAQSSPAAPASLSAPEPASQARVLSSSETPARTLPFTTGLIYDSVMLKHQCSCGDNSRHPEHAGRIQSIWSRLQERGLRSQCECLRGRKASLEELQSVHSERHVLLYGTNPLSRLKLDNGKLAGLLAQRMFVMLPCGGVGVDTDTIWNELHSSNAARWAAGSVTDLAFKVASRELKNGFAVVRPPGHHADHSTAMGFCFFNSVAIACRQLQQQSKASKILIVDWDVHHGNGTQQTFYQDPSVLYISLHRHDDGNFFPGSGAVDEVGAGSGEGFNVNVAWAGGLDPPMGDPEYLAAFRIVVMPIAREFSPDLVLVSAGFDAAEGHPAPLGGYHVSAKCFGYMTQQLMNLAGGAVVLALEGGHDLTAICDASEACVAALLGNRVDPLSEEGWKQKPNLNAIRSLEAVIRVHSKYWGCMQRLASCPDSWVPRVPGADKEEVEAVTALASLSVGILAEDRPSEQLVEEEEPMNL

[1] = test system: A549 (human lung cancer cells); assay: MTT cancer cell growth inhibition; format: cell-based; details: Homo sapiens, A549, 72 h, MTT, 72 hours incubation; read-out: GI50 A54
Description: (§1) MTT assay principle is yellow MTT can penetrate membrane into the cell, succinic dehydrogenase of the mitochondria in living cells can make exogenous MTT reduction of insoluble in water of blue-violet acicular formazan for crystallization and deposition in the cell, crystallization can be dissolved dimethyl sulfoxide (DMSO) solution, detected its absorbance at 490 nm/570 nm wavelength by enzyme-linked immunosorbent assay, which can reflect the number of cells.
(§2) Using DMEM+10% FBS culture medium or using 1640+10% FBS culture, respectively.
(§3) a) Cells were seeded in 96-well plates with the inoculation of 1500/well, 190 μl/hole, 37° C., 5% of CO2 incubator overnight;
(§4) b) The next day each well was added 10 μl of different drugs. The final concentration of drug was 10^−5˜10^−10M, three parallel holes; 37° C., 5% CO2 culture incubator for 72 hours incubation;
(§5) c) Per well was added 20 μl 5 mg/ml of MTT, 37° C., 5% CO2 culture incubator for 4 hours incubation;
(§6) d) The supernatant was discarded. Each well was added 100 μl of DMSO and oscillation;
(§7) e) 570 nm readings. Calculate cell viability. GI50 calculation based on the results.

[2] = test system: BGC-823 (human gastric cancer cells); assay: MTT cancer cell growth inhibition; format: cell-based; details: Homo sapiens, BGC-823, 72 h, MTT, 72 hours incubation; read-out: GI50 BG
Description: as §1, §2, §3, §4, §5, §6, §7

[3] = test system: Bel-7402 (human hepatoma cells); assay: MTT cancer cell growth inhibition; format: cell-based; details: Homo sapiens, Bel-7402, 72 h, MTT, 72 hours incubation, Bel-7402 cells; read-out: GI50 Bel-7402
Description: as §1, §2, §3, §4, §5, §6, §7

[4] = test system: DU145 (human prostate cancer cells); assay: MTT cancer cell growth inhibition; format: cell-based; details: Homo sapiens, DU-145, 72 h, MTT, 72 hours incubation; read-out: GI50 Du1
Description: as §1, §2, §3, §4, §5, §6, §7

[5] = test system: H1975 (non-small cell lung adenocarcinoma); assay: MTT cancer cell growth inhibition; format: cell-based; details: Homo sapiens, NCI-H1975, 72 h, MTT, 72 hours incubation, H1975 cells; read-out: GI50 H1975
Description: as §1, §2, §3, §4, §5, §6, §7

[6] = test system: HCC827 (human non-small cell lung cancer cells); assay: MTT cancer cell growth inhibition; format: cell-based; details: Homo sapiens, HCC827, 72 h, MTT, 72 hours incubation, HCC827 cells; read-out: GI50 HCC827
Description: as §1, §2, §3, §4, §5, §6, §7

[7] = test system: HT1080 (human fibrosarcoma cells); assay: MTT cancer cell growth inhibition; format: cell-based; details: Homo sapiens, HT-1080, 72 h, MTT, 72 hours incubation; read-out: GI50 HT1
Description: as §1, §2, §3, §4, §5, §6, §7

[8] = test system: Hela (human cervical cancer cells); assay: MTT cancer cell growth inhibition; format: cell-based; details: Homo sapiens, HeLa, 72 h, MTT, 72 hours incubation; read-out: GI50 Hela
Description: as §1, §2, §3, §4, §5, §6, §7

[9] = test system: Huh-7 (human hepatoma cells); assay: MTT cancer cell growth inhibition; format: cell-based; details: Homo sapiens, Huh-7, 72 h, MTT, 72 hours incubation, Huh-7 cells; read-out: GI50 Huh-7
Description: as §1, §2, §3, §4, §5, §6, §7

[10] = test system: K562 (human leukemia cells); assay: MTT cancer cell growth inhibition; format: cell-based; details: Homo sapiens, K562, 72 h, MTT, 72 hours incubation, K562 cells; read-out: GI50 K562
Description: as §1, §2, §3, §4, §5, §6, §7

[11] = test system: KBM-5 (human chronic myelogenous leukemia); assay: MTT cancer cell growth inhibition; format: cell-based; details: Homo sapiens, KBM5, 72 h, MTT, 72 hours incubation, KBM-5 cells; read-out: GI50 KBM-5
Description: as §1, §2, §3, §4, §5, §6, §7

[12] = test system: KBM5-T315I (human chronic myelogenous leukemia); assay: MTT cancer cell growth inhibition; format: cell-based; details: Homo sapiens, 72 h, MTT, 72 hours incubation, KBM5-T315I cells; read-out: GI50 KBM5-T315I
Description: as §1, §2, §3, §4, §5, §6, §7

[13] = test system: MCF-7 (human breast cancer cells); assay: MTT cancer cell growth inhibition; format: cell-based; details: Homo sapiens, MCF7, 72 h, 72 hours incubation, read-out: GI50 MCF
Description: as §1, §2, §3, §4, §5, §6, §7

[14] = test system: MDA-MB-231 (breast cancer cells); assay: MTT cancer cell growth inhibition; format: cell-based; details: Homo sapiens, MDA-MB-231, 72 h, read-out: GI50 MDA-MB-231, MTT, 72 hours incubation, MDA-MB-231 cells
Description: as §1, §2, §3, §4, §5, §6, §7

[15] = test system: MOLT-4 (human acute lymphoblastic leukemia cells); assay: MTT cancer cell growth inhibition; format: cell-based; details: Homo sapiens, MOLT-4, 72 h, MTT, 72 hours incubation; read-out: GI50 Mol
Description: as §1, §2, §3, §4, §5, §6, §7

[16] = test system: N-87 (human gastric cancer cells); assay: MTT cancer cell growth inhibition; format: cell-based; details: Homo sapiens, 72 h, MTT, 72 hours incubation, N-87 cells; read-out: GI50 N-87
Description: as §1, §2, §3, §4, §5, §6, §7

[17] = test system: PANC-1 (Pac-1, human pancreatic cancer cells); assay: MTT cancer cell growth inhibition; format: cell-based; details: Homo sapiens, PANC-1, 72 h, MTT, 72 hours incubation; read-out: GI50 PAN
Description: as §1, §2, §3, §4, §5, §6, §7

[18] = test system: SGC-7901 (human gastric cancer cells); assay: MTT cancer cell growth inhibition; format: cell-based; details: Homo sapiens, SGC-7901, 72 h, MTT, 72 hours incubation, SGC-7901 cells; read-out: GI50 SGC-7901
Description: as §1, §2, §3, §4, §5, §6, §7

[19] = test system: U937 (human leukemia cells); assay: MTT cancer cell growth inhibition; format: cell-based; details: Homo sapiens, U-937, 72 h, MTT, 72 hours incubation; read-out: GI50 U93
Description: as §1, §2, §3, §4, §5, §6, §7

[20] = test system: lncap (prostate cancer cells); assay: MTT cancer cell growth inhibition; format: cell-based; details: Homo sapiens, LNCaP, 72 h, MTT, 72 hours incubation; read-out: GI50 lnca
Description: as §1, §2, §3, §4, §5, §6, §7

SMILES | IC50 HDAC7 (HDAC7) | GI50 [1] | GI50 [2] | GI50 [3] | GI50 [4] | GI50 [5] | GI50 [6] | GI50 [7] | GI50 [8] | GI50 [9] | GI50 [10] | GI50 [11] | GI50 [12] | GI50 [13] | GI50 [14] | GI50 [15] | GI50 [16] | GI50 [17] | GI50 [18] | GI50 [19] | also measured
C=C1NC(=O)c2cccc(n2)CNC(=O)C[C@@H](/C=C/CCS)OC(=O)[C@H](C)NC1=O [Compound 139] | no activity | 50 nM | 60 nM | 43 nM | 80 nM | 15 nM | 34 nM | 70 nM | 70 nM | 51 nM | 47 nM | 69 nM | 21 nM | 10 nM | 67 nM | 90 nM | 25 nM | 70 nM | 57 nM | 50 nM | GI50 [20]: 190 nM
C=C1NC(=O)c2nc(ccc2F)CNC(=O)C[C@@H](/C=C/CCS)OC(=O)[C@H](C)NC1=O [Compound 140] | no activity | 30 nM | 100 nM | 79 nM | 60 nM | 63 nM | 21 nM | 50 nM | 130 nM | 42 nM | 39 nM | 31 nM | 33 nM | 80 nM | 31 nM | 50 nM | 55 nM | 30 nM | 44 nM | 70 nM | GI50 [20]: 20 nM
C=C1NC(=O)c2cc(F)cc(n2)CNC(=O)C[C@@H](/C=C/CCS)OC(=O)[C@H](C)NC1=O [Compound 141] | no activity | 50 nM | 30 nM | 58 nM | 70 nM | 38 nM | 37 nM | 80 nM | 80 nM | 28 nM | 31 nM | 36 nM | 43 nM | 70 nM | 26 nM | 80 nM | 67 nM | 50 nM | 17 nM | 50 nM | GI50 [20]: 80 nM
C=C1NC(=O)c2ccc(F)c(n2)CNC(=O)C[C@@H](/C=C/CCS)OC(=O)[C@H](C)NC1=O [Compound 142] | no activity | 130 nM | 70 nM | 73 nM | 50 nM | 59 nM | 66 nM | 70 nM | 50 nM | 38 nM | 84 nM | 73 nM | 35 nM | 50 nM | 51 nM | 20 nM | 42 nM | 130 nM | 53 nM | 50 nM | GI50 [20]: 110 nM
C/C=C1\NC(=O)c2nccc(n2)CNC(=O)C[C@@H](/C=C/CCS)OC(=O)[C@H](C(C)C)NC1=O [Compound 143] | no activity | 80 nM | 80 nM | 42 nM | 70 nM | 49 nM | 73 nM | 90 nM | 60 nM | 75 nM | 53 nM | 36 nM | 34 nM | 70 nM | 25 nM | 90 nM | 32 nM | 80 nM | 63 nM | 80 nM | GI50 [20]: 60 nM
C/C=C1\NC(=O)c2nccc(n2)CNC(=O)C[C@@H](/C=C/CCS)OC(=O)[C@H](C)NC1=O [Compound 144] | no activity | 70 nM | 70 nM | 35 nM | 60 nM | 38 nM | 12 nM | 70 nM | 50 nM | 23 nM | 11 nM | 11 nM | 127 nM | 60 nM | 37 nM | 70 nM | 29 nM | 70 nM | 41 nM | 70 nM | GI50 [20]: 50 nM
